# Results taken from PMC8464850, “Sulfonium Ligands of the α7 nAChR” (Molecules, 2021).
# Read-outs that look alike come from different tables or passages of the source.
# Key:
# α7 nAChR [1] = target: T1, α7 nAChR (Homo sapiens, UniProt P36544); experiment: α7 concentration-response on co-application with 10 µM PNU-120596; assay type: cell-based; conditions: peak currents, co-applied with 10 µM PNU-120596, Hill fit; for IMax (PNU Activation): approximation only
# T1 construct: expressed in transfected cells; host or cells: Xenopus laevis oocytes (injected RNA)
# T1 sequence (P36544 23-502): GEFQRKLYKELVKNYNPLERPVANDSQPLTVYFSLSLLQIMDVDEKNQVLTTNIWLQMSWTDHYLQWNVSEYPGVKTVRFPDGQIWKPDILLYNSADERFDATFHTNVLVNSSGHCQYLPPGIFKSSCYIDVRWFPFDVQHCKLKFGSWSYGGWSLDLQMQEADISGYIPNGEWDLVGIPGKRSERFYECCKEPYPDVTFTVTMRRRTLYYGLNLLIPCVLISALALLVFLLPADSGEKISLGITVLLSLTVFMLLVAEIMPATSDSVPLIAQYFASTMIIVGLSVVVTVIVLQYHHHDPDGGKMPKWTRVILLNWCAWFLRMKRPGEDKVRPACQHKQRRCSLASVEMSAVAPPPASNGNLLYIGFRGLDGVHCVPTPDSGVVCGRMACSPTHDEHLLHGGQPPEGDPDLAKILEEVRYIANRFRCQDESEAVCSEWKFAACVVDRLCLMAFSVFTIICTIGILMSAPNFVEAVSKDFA
# Experimental: (§1) Compounds were co-applied at a concentration of 100 µM with 30 µM racemic TQS (Figure 3A). All compounds except S4, S5, and S8 gave large responses when co-applied with TQS, consistent with silent agonism of α7 (see Table S1 for ANOVA). Active compounds were also evaluated across a range of concentrations with the alternative PAM, PNU-120596 (Figure 3B). The curve-fit values for Imax (Table 1) should be taken only as approximation of the relative efficacies of the compounds, due to the large variability frequently observed in PNU-120596-potentiated responses, as evidenced by the large SEMs of the responses obtained with high concentrations.
# (§2) Figure 3 Responses of α7 nAChR to sulfonium compounds coapplied with PAMs. (A) Potentiation of α7 responses with 30 µM racemic TQS. Shown are the average net-charge responses of seven or eight oocytes ± SEM. (B) Concentration-response studies of peak currents generated by compounds that gave positive responses with TQS, coapplied with 10 µM PNU-120596. Each point represents the average (±SEM) of at least four oocytes.
# (§3) Experiments were conducted using OpusXpress 6000A (Molecular Devices, Union City, CA, USA). Both the voltage and current electrodes were filled with 3 M KCl. Oocytes were voltage-clamped at −60 mV at room temperature (24 °C). The oocytes were bath-perfused with Ringer’s solution (115 mM NaCl, 2.5 mM KCl, 1.8 mM CaCl2, 10 mM HEPES, and 1 μM atropine, pH 7.2) at 2 mL/min for α7 receptors, or 4 mL/min for heteromeric nAChR. To evaluate the effects of experimental compounds, responses were compared to control ACh-evoked responses, defined as the average of two initial applications of ACh made before test applications. ACh control concentrations were 60 µM for α7 receptors; 100 µM for α4(3)β2(2) and α3β4 receptors; 30 µM for α4β2α6β2β3 and muscle-type (αβ1εδ) receptors; and 10 µM for α4(3)β2(2) and α4(2)β2(2)α5 receptors.
# (§4) Solutions were applied from 96-well plates via disposable tips. Drug applications were 12 s in duration, followed by 181 s washout periods for α7 receptors, or 6 s in duration followed by 301 s washout periods for heteromeric nAChR. The responses were calculated as both peak current amplitudes and net charge, as previously described. Data were collected at 50 Hz, filtered at 20 Hz for α7 receptors or filtered at 5 Hz for heteromeric nAChR, and analyzed by Clampfit (Molecular Devices, San Jose, CA, USA) and Excel (Microsoft, Redmond, WA, USA). Data were expressed as means ± SEM from at least four oocytes for each experiment and plotted with Kaleidagraph 4.5.2 (Abelbeck Software, Reading, PA, USA). Multi-cell averages were calculated for comparisons of complex responses. Averages of the normalized data were calculated for each of the 10,322 points in each of the 206.44 s traces (acquired at 50 Hz), as well as the standard errors for those averages.
# α7 nAChR [2] = target: T1, α7 nAChR; experiment: α7 responses on co-application with the type II PAM TQS (silent agonism); assay type: cell-based; conditions: for α7 functional classification (silent agonist / inactive): inactive alone, active with a PAM = silent agonist; for response when co-applied with TQS: 100 µM compound with 30 µM racemic TQS, net charge
# Experimental: as §1, §2
# The human nAChR clones were obtained from Jon Lindstrom (University of Pennsylvania, Philadelphia, PA, USA). Mouse muscle subunit clones were obtained from Jim Boulter (Salk Institute, La Jolla, CA, USA) and Paul Gardner (Dartmouth, Hanover, NH, USA). The human resistance-to-cholinesterase 3 (RIC3) clone was obtained from Millet Treinin (Hebrew University, Jerusalem, Israel) and co-injected with α7 to improve the level and speed of α7 receptor expression without affecting the pharmacological properties of the receptors. Subsequent to linearization and purification of the plasmid DNAs, RNAs were prepared using the mMessage mMachine in vitro RNA transcription kit (Ambion, Austin, TX, USA).
# as §3, §4
# α3β4 nAChR = target: T2, α3β4 nAChR (Homo sapiens, UniProt P30926+P32297); experiment: Inhibition of α3β4 100 µM ACh-evoked peak currents; assay type: cell-based; conditions: co-application with 100 µM ACh, peak currents
# T2 construct: expressed in transfected cells; host or cells: Xenopus laevis oocytes (injected RNA)
# T2 sequence (P32297 32-505): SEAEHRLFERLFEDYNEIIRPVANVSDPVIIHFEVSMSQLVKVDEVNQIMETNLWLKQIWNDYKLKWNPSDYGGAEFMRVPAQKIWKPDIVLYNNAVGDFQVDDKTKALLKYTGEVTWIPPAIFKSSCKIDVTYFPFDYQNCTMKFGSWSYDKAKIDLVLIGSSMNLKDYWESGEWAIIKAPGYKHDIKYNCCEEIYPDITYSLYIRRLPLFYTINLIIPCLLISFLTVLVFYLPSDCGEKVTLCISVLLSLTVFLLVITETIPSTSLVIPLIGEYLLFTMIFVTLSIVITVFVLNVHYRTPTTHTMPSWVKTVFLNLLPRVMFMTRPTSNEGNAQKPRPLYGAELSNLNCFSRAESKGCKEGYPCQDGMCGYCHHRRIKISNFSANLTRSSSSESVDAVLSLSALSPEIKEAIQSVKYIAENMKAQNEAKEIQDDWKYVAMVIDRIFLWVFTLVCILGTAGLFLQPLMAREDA
# T2 sequence (P30926 22-498): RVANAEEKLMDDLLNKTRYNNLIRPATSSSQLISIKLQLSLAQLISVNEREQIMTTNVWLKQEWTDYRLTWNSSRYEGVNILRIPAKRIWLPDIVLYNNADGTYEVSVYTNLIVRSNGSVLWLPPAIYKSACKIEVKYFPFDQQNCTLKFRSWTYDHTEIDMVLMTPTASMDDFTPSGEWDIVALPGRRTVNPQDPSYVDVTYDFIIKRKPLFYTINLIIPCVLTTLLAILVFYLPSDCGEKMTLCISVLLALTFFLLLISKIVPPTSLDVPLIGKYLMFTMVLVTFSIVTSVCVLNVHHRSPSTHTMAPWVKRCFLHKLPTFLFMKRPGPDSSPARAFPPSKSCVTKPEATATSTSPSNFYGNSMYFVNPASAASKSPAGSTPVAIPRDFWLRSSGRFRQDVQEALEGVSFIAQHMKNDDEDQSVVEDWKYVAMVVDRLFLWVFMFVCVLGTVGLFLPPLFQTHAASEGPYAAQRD
# Experimental: (§5) Although none of the other sulfonium compounds activated neuronal heteromeric receptors, several of them produced inhibition of ACh-evoked responses. Shown in Figure 7A are concentration-response studies for the compounds that were active antagonists of α3β4 nAChR (Table 3). Some compounds were also tested as antagonists of α4β2 subtypes formed with concatamers (Figure 7B).
# Figure 7 Inhibition of heteromeric nAChR by sulfonium compounds. (A) Inhibition of α3β4 100 µM ACh-evoked peak currents by the co-application of the sulfonium compounds. Data are the averaged of six to eight oocytes (±SEM). To confirm the stability of the ACh responses, applications of ACh plus the sulfonium compounds were alternated with applications of ACh alone. (B) Inhibition of ACh control peak-current responses of α4-containing nAChR formed with concatamers by 100 µM of the sulfonium compounds indicated. Data are the average of six to eight oocytes (±SEM).
# as §3, §4
# α7 nAChR [3] = target: T1, α7 nAChR; experiment: Inhibition of α7 ACh-evoked responses; assay type: cell-based; conditions: for effect on 60 µM ACh response at 1 mM: compound 1 mM co-applied with 60 µM ACh; for inhibition at 100 µM: read-out: inhibition of responses to 60 µM ACh; for inhibition of responses to 60 µM ACh: compound co-applied at 100 µM
# Experimental: Figure 4 Effects sulfonium compounds on α7 ACh-evoked net-charge responses. (A) Effects of the sulfonium compounds at 100 µM co-applied with 60 µM relative to responses to 60 µM ACh applied alone. Data are the averages (±SEM) from seven or eight cells under each condition. (B) Effects of select sulfonium compounds at 1 mM co-applied with 60 µM relative to responses to 60 µM ACh applied alone. Data are the averages (±SEM) from seven or eight cells under each condition. Statistical significance was determined by pairwise t-test with p values corrected for multiple comparisons; * p < 0.05, ** p < 0.001.
# The sulfonium compounds that were active with TQS but produced little inhibition of ACh response at a concentration of 100 µM were tested as inhibitors of ACh response at a concentration of 1 mM (Figure 4B).
# We tested S8 across a range of concentrations for its ability to inhibit 60 µM ACh responses (Figure 5A). Note that we use 60 µM as an ACh control because this concentration gives nearly maximal (93%) net-charge responses, with the time course of the responses roughly following the speed of solution exchange. […] We tested whether inhibition of α7 responses by S8 was surmountable by increasing ACh concentration, consistent with a competitive mechanism of inhibition. However, since α7 responses to concentrations of ACh greater than 60 µM occur more rapidly than solution exchange in the chamber, we first pre-applied 5 µM S8 prior to the co-application of 5 µM S8 with either 60 µM or 1 mM ACh (Figure 5B). The 60 µM net-charge responses were reduced to 28 ± 2% of controls (n = 8) and 60 µM peak currents to 21 ± 3 % controls. The 1 mM net-charge responses were reduced to 56 ± 6 % of those obtained without S8 co-application, although the S8 co-application increased the peak-current amplitudes compared to 60 µM controls from 1.78 ± 0.15 to 3.72 ± 0.81 (n = 8).
# Figure 5 Inhibition of α7 ACh-evoked responses by S8. (A) Concentration-response studies of α7 net-charge responses to 60 µM ACh co-applied with increasing concentrations of S8. To confirm the stability of the ACh responses, applications of ACh plus S8 were alternated with applications of ACh alone. Data are the averages of eight cells (±SEM). See text for curve-fit values. (B) Effects of 5 µM S8 on responses to either 60 µM or 1 mM ACh. The traces shown across the top are the averaged raw data from seven cells, each normalized to the peak current of the first ACh control response shown. In order to assure that the S8 was present at 5 µM throughout the ACh-evoked responses, a 30 s pre-application was made of 5 µM S8 alone. The lower traces show averaged responses to 60 µM or 1 mM ACh alone or with the 5 µM S8 pre- and co-application. The details of the data are described in Methods.
# as §3
# Solutions were applied from 96-well plates via disposable tips. Drug applications were 12 s in duration, followed by 181 s washout periods for α7 receptors, or 6 s in duration followed by 301 s washout periods for heteromeric nAChR. […]
# [4] = system: α4β2 subtypes formed with concatamers; experiment: Inhibition of ACh control peak-current responses of α4-containing nAChR formed with concatamers; assay type: cell-based, human; conditions: 100 µM compound, Figure 7B
# Experimental: as §5
# Figure 7 Inhibition of heteromeric nAChR by sulfonium compounds. (A) Inhibition of α3β4 100 µM ACh-evoked peak currents by the co-application of the sulfonium compounds. Data are the averaged of six to eight oocytes (±SEM). […]
# as §4, with “Drug applications were 12 s in duration, followed by 181 s washout periods for α7 receptors, or 6 s in duration followed by 301 s washout periods for heteromeric nAChR.” left out
# pKa by titration = assay type: physicochemical
# Excerpt: One of the questions that emerges from the data is why aromatic sulfoniums as structurally similar as S5, S9, and S10 provide different responses when coapplied with TQS. Indeed, compounds S5 and S9 virtually overlap in their best docked poses (Supplementary Figure S1), but the α7 response of S9 and TQS was dramatically greater than that of S5 and TQS (p < 0.001, Table S1). The formation of cation–pi interactions is a key feature of the binding of nicotinic orthosteric ligands, and the electronic distribution of the cation can be compared qualitatively in a series of compounds using molecular electrostatic potentials (MEPs). Analysis of the MEPs shown in Figure 9 reveal that the substituents on the benzene ring can modulate the intensity of the positive charge on the sulfonium center. Compound S5, for instance, has two hydroxyl groups which are strongly electron donating, and in comparison to compound S9, which has only one hydroxyl group, the intensity of the positive charge is […]. Another factor may be that a lone pair on the ortho hydroxyl substituent is donating electron density through space to the neighboring sulfonium, redistributing its positive charge. Compound S10 also has an ortho hydroxyl group, but unlike compound S5, compound S10 also has a nitro group, which is a strong electron-withdrawing group that may offset the electron-donating impact of the ortho hydroxyl group. Inspection of the MEP surface shown in Figure 9 does indicate that, relative to S5, the S10 sulfonium bears greater positive electrostatic potential. Given that compounds such as para-nitrophenol are acidic, with a pKa of ~7 for the phenolic hydroxyl, we also considered whether the deprotonated forms of S5, S9, and S10 might be accessible at the pH of our experiments.
# Thus, all three compounds have varying proportions of the phenolic OH in the phenoxide form at the pH of Ringers solution used in the experiments. […] Future work on analogs of these compounds may be focused on substituents that are non-ionizable, and thus preserve a positive molecular charge derived from the sulfonium center.
# [5] = 5 µM S8 pre-applied and co-applied
smiles,measurement,setting,value
"CC[S+](CC)CC [Compound S11, triethylsulfonium iodide]",IMax (PNU Activation),α7 nAChR [1],>1.8
same,α7 functional classification (silent agonist / inactive),α7 nAChR [2],silent agonist
same,IC50,α3β4 nAChR,108 ± 20 µM
same,effect on 60 µM ACh response at 1 mM,α7 nAChR [3],not statistically significant
"C[S+](C)CC(=O)c1ccccc1.F[B-](F)(F)F [Compound S7, dimethyl(2-oxo-2-phenylethyl)sulfonium tetrafluoroborate]",IMax (PNU Activation),α7 nAChR [1],>1.1
same,α7 functional classification (silent agonist / inactive),α7 nAChR [2],silent agonist activity
"CCOC(=O)C[S+](C)C.[Br-] [Compound S2, (2-ethoxy-2-oxoethyl)dimethylsulfonium bromide]",IMax (PNU Activation),α7 nAChR [1],16 ± 6
same,α7 functional classification (silent agonist / inactive),α7 nAChR [2],efficacious silent agonist
same,effect on 60 µM ACh response at 1 mM,α7 nAChR [3],significant inhibition
same,inhibition at 100 µM,α7 nAChR [3],≤ 10%
"C[S+](Cc1ccccc1)Cc1ccccc1 [Compound S8, dibenzyl(methyl)sulfonium tetrafluoroborate]",relative antagonist activity,[4],most active antagonist
same,IC50,α3β4 nAChR,3.4 ± 0.4 µM
same,"60 µM ACh peak currents, % controls",α7 nAChR [3]; [5],21 ± 3%
same,"1 mM ACh net-charge responses, % of those obtained without S8 co-application",α7 nAChR [3]; [5],56 ± 6%
same,remaining activity at 5 µM,"α7 nAChR [3]; 5 µM S8 pre-applied and co-applied, n = 8, read-out: 60 µM ACh net-charge responses, % of controls",28 ± 2%
same,IC50,"α7 nAChR [3]; net charge, co-application, eight cells, read-out: IC50 for inhibition of 60 µM ACh responses",4.9 ± 2.7 µM
same,1 mM ACh peak-current amplitudes compared to 60 µM controls,"α7 nAChR [3]; with 5 µM S8 pre- and co-application, n = 8",3.72 ± 0.81
"OCC[S+](CCO)CCO.[Br-] [Compound S4, tris(2-hydroxyethyl)sulfonium bromide]",response when co-applied with TQS,α7 nAChR [2],did not generate responses
same,α7 functional classification (silent agonist / inactive),α7 nAChR [2],simply inactive
same,inhibition of responses to 60 µM ACh,α7 nAChR [3]; net charge,failed to produce inhibition
"COc1ccc([N+](=O)[O-])cc1C[S+](C)C.[Br-] [Compound S3, (2-methoxy-5-nitrobenzyl)dimethylsulfonium bromide]",IMax (PNU Activation),α7 nAChR [1],22 ± 2.5
same,EC50,α7 nAChR [1]; read-out: EC50 (PNU Activation),263 ± 23 µM
same,α7 functional classification (silent agonist / inactive),α7 nAChR [2],silent agonist activity
same,IC50,α3β4 nAChR,18 ± 2.6 µM
same,inhibition at 100 µM,α7 nAChR [3],~50%
"C[S+](C)c1ccc(O)cc1O [Compound S5, (2,4-dihydroxyphenyl)dimethylsulfonium trifluoromethanesulfonate]",response when co-applied with TQS,α7 nAChR [2],did not generate responses
same,α7 functional classification (silent agonist / inactive),α7 nAChR [2],simply inactive
same,pKa,"pKa by titration; phenolic hydroxyl, data not shown for S9, S10, read-out: pKa",~6.3
same,pKa,pKa by titration; read-out: pKa for the second hydroxyl,9.2
same,inhibition of responses to 60 µM ACh,α7 nAChR [3]; net charge,failed to produce inhibition
